The record followed here is the supplement of paper PMC10307832.

Holding throughout (test): relative viability (nuclei count vs DMSO), 5 days (fraction); higher = more cells survive
Compound in the assay “Axitinib + Navitoclax”: CNC(=O)c1ccccc1Sc1ccc2c(/C=C/c3ccccn3)n[nH]c2c1 [Axitinib] + CC1(C)CCC(c2ccc(Cl)cc2)=C(CN2CCN(c3ccc(C(=O)NS(=O)(=O)c4ccc(N[C@H](CCN5CCOCC5)CSc5ccccc5)c(S(=O)(=O)C(F)(F)F)c4)cc3)CC2)C1 [Navitoclax] (partner 0.5 µM)
The procedure, abridged:
(§1)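 Lung cancer cell lines were pin-tool dosed in 1536-well plates on the day after seeding, with either a lone drug or a fixed anchor-drug dose plus five library-drug doses (not always all listed) in √10 steps. Nuclei were counted on 4× images after 5 days. Relative viability is the ratio of treated-well to vehicle-well nuclei counts, with each value a median of duplicate plates.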

Compound in assay [1]: CC1=CC=C(C=C1)C(=O)CN2C3=C(CCCC3)SC2=N [Pifithrin_alpha] + Cc1nc(Nc2ncc(C(=O)Nc3c(C)cccc3Cl)s2)cc(N2CCN(CCO)CC2)n1 [Dasatinib] (partner 0.075 µM)
The essentials:
as §1

Compound in the assay “Axitinib + Palbociclib”: CNC(=O)c1ccccc1Sc1ccc2c(/C=C/c3ccccn3)n[nH]c2c1 [Axitinib] + CC(=O)c1c(C)c2cnc(Nc3ccc(N4CCNCC4)cn3)nc2n(C2CCCC2)c1=O [Palbociclib] (partner 0.5 µM)
The essentials:
as §1

Compound in the assay “Axitinib + Pemetrexed”: CNC(=O)c1ccccc1Sc1ccc2c(/C=C/c3ccccn3)n[nH]c2c1 [Axitinib] + Nc1nc2[nH]cc(CCc3ccc(C(=O)N[C@@H](CCC(=O)O)C(=O)O)cc3)c2c(=O)[nH]1 [Pemetrexed] (partner 0.2 µM)
The essentials: as §1

Consider CAL-12T, for which the relative viability in the assay with Axitinib + Navitoclax (first compound 0.005 µM) is 1.29; with Axitinib + Navitoclax (first compound 0.01581 µM), 1.47; with Axitinib + Navitoclax (first compound 0.05 µM) it was 1.15; in the assay with Axitinib + Navitoclax (first compound 0.1581 µM), 1.19; with Axitinib + Navitoclax (first compound 0.5 µM) it was 1.45; in assay [1] (first compound 1 µM), 0.327. For the same cell line, the relative viability worked out at 0.249 in assay [1] (first compound 3.162 µM); 0.258 in assay [1] (first compound 10 µM); 0.196 in assay [1] (first compound 100 µM); 0.586 with Axitinib + Palbociclib (first compound 0.005 µM); 0.508 in the assay with Axitinib + Palbociclib (first compound 0.01581 µM); 0.41 with Axitinib + Palbociclib (first compound 0.05 µM). Moreover, the relative viability in the assay with Axitinib + Palbociclib (first compound 0.1581 µM) was found to be 0.525; with Axitinib + Palbociclib (first compound 0.5 µM), 0.522; with Axitinib + Pemetrexed (first compound 0.005 µM), 1.43; with Axitinib + Pemetrexed (first compound 0.01581 µM), 1.35; with Axitinib + Pemetrexed (first compound 0.05 µM) it was 1.28; in the assay with Axitinib + Pemetrexed (first compound 0.1581 µM), 1.22. Besides, the relative viability in the assay with Axitinib + Pemetrexed (first compound 0.5 µM) was found to be 1.24.

In the case of COR-L23, the relative viability in the assay with Axitinib + Navitoclax (first compound 0.005 µM) stood at 0.948; in the assay with Axitinib + Navitoclax (first compound 0.01581 µM), 0.983; with Axitinib + Navitoclax (first compound 0.05 µM), 1.15; with Axitinib + Navitoclax (first compound 0.1581 µM), 1.07; with Axitinib + Navitoclax (first compound 0.5 µM), 1.15; in assay [1] (first compound 1 µM), 0.567. Moreover, the relative viability in assay [1] (first compound 3.162 µM) was 0.458; in assay [1] (first compound 10 µM), 0.386; in assay [1] (first compound 100 µM) it was 0.38; with Axitinib + Palbociclib (first compound 0.005 µM), 0.322; with Axitinib + Palbociclib (first compound 0.01581 µM), 0.297; in the assay with Axitinib + Palbociclib (first compound 0.05 µM), 0.323. The relative viability was determined as 0.303 with Axitinib + Palbociclib (first compound 0.1581 µM); 0.331 with Axitinib + Palbociclib (first compound 0.5 µM); 0.197 in the assay with Axitinib + Pemetrexed (first compound 0.005 µM); 0.201 with Axitinib + Pemetrexed (first compound 0.01581 µM); 0.194 with Axitinib + Pemetrexed (first compound 0.05 µM); 0.192 with Axitinib + Pemetrexed (first compound 0.1581 µM). Also, the relative viability with Axitinib + Pemetrexed (first compound 0.5 µM) came out at 0.21.

In the case of COR-L 105, the relative viability in the assay with Axitinib + Navitoclax (first compound 0.005 µM) was found to be 1; with Axitinib + Navitoclax (first compound 0.01581 µM) it was 0.828; with Axitinib + Navitoclax (first compound 0.05 µM), 0.795; with Axitinib + Navitoclax (first compound 0.1581 µM), 0.65; in the assay with Axitinib + Navitoclax (first compound 0.5 µM) it was 1.07; in assay [1] (first compound 1 µM), 0.315. Also, the relative viability in assay [1] (first compound 3.162 µM) stood at 0.292; in assay [1] (first compound 10 µM), 0.323; in assay [1] (first compound 31.62 µM) it was 0.243; in assay [1] (first compound 100 µM), 0.323; with Axitinib + Palbociclib (first compound 0.005 µM), 0.456; with Axitinib + Palbociclib (first compound 0.01581 µM), 0.434. Moreover, the relative viability with Axitinib + Palbociclib (first compound 0.05 µM) came to 0.38; with Axitinib + Palbociclib (first compound 0.1581 µM), 0.438; in the assay with Axitinib + Palbociclib (first compound 0.5 µM), 0.37; in the assay with Axitinib + Pemetrexed (first compound 0.005 µM) it was 1.14; in the assay with Axitinib + Pemetrexed (first compound 0.01581 µM), 1.09; with Axitinib + Pemetrexed (first compound 0.05 µM) it was 1.05. Besides, the relative viability in the assay with Axitinib + Pemetrexed (first compound 0.1581 µM) amounted to 1.25; in the assay with Axitinib + Pemetrexed (first compound 0.5 µM) it was 1.26.

Consider Calu-6, for which the relative viability in the assay with Axitinib + Navitoclax (first compound 0.005 µM) is 0.923; with Axitinib + Navitoclax (first compound 0.01581 µM) it was 0.87; with Axitinib + Navitoclax (first compound 0.05 µM) it was 0.751; with Axitinib + Navitoclax (first compound 0.1581 µM) it was 0.885; in the assay with Axitinib + Navitoclax (first compound 0.5 µM), 0.929.

Take ChaGo-K-1: the relative viability with Axitinib + Navitoclax (first compound 0.005 µM) is 1.07; with Axitinib + Navitoclax (first compound 0.01581 µM) it was 0.779; in the assay with Axitinib + Navitoclax (first compound 0.05 µM) it was 1.13; in the assay with Axitinib + Navitoclax (first compound 0.1581 µM), 0.921; with Axitinib + Navitoclax (first compound 0.5 µM), 0.895; in assay [1] (first compound 1 µM) it was 0.641. In addition, the relative viability in assay [1] (first compound 3.162 µM) was 0.594; in assay [1] (first compound 10 µM), 0.614; in assay [1] (first compound 31.62 µM), 0.509; in assay [1] (first compound 100 µM) it was 0.497; with Axitinib + Palbociclib (first compound 0.005 µM) it was 0.88; in the assay with Axitinib + Palbociclib (first compound 0.01581 µM), 0.947. The relative viability with Axitinib + Palbociclib (first compound 0.05 µM) was 0.972; in the assay with Axitinib + Palbociclib (first compound 0.1581 µM), 0.863; with Axitinib + Palbociclib (first compound 0.5 µM) it was 1; with Axitinib + Pemetrexed (first compound 0.005 µM), 0.27; with Axitinib + Pemetrexed (first compound 0.01581 µM), 0.262; with Axitinib + Pemetrexed (first compound 0.05 µM), 0.252. Moreover, the relative viability amounted to 0.267 with Axitinib + Pemetrexed (first compound 0.1581 µM) and 0.274 in the assay with Axitinib + Pemetrexed (first compound 0.5 µM).
